Several values for one entry are separate records, joined by “and”; a condition that tells them apart may be missing. Identical values can stand only once.
Key:
[1] = tested on: patients with neuropathic pain; experiment: Clinical trial: pain intensity by 11-point pain intensity numerical rating scale (PI-NRS) over 12 weeks; format: in vivo, human
Source text: Patients with neuropathic pain were selected as subjects. The patients were asked to report the characteristics of neuropathic pain (type of neuropathic pain, site of occurrence, time of occurrence and frequency of occurrence), causative factors of pain, presence of diseases and relationship with pain, relationship between pain and drug medication, medication of therapeutic agents for pain, etc.
The characteristics of “nerve block treatment group (control group)” patients are described in Table 1, the characteristics of “choline alfoscerate intravenous administration group (Example 1)” patients are described in Table 2 and the characteristics of “choline alfoscerate oral administration group (Example 2)” patients are described in Table 3.
(§1) The “nerve block treatment group (control group)” patients were injected with 5 mL of 0.5% lidocaine at the sites of pain (4-5 points), once a week.
(§2) The “choline alfoscerate intravenous administration group (Example 1)” patients were intravenously injected slowly with choline alfoscerate (1 g/4 mL) mixed in 100 mL of physiological saline, twice a week.
(§3) The “choline alfoscerate oral administration group (Example 2)” patients were […] with choline alfoscerate (400 mg/capsule), 3 times a day.
Pain intensity was measured for 12 weeks. The pain intensity was evaluated according to the 11-point pain intensity numerical rating scale (PI-NRS), where 0=no pain, weakest pain=1 and most severe pain=10. 2-point reduction in the pain intensity was considered clinically significant as reported (Farrar 2001, Rowbotham 2001, Hawker 2011). The pain intensity was measured on the first visit (T0) and was compared with the pain intensity 2 weeks (T1), 4 weeks (T2), 6 weeks (T3), 8 weeks (T4), 10 weeks (T5) and 12 weeks (T6) after the first drug administration.
Statistical analysis was conducted using the SASS package ver. 23 and significance was tested by the paired t-test.

[2] = Clinical trial: side effects after the treatment; format: in vivo, human; details: Example 1: iv 1 g twice a week; Example 2: oral 400 mg 3 times a day; patients
Description: as §1, §2, §3
Because choline alfoscerate has no effect on the kidney and liver, it is thought that it can be used for people with kidney or liver problems as a therapeutic agent for neuropathic pain.

[3] = tested on: spared nerve injury (SNI) rat model; experiment: Von Frey filament test (50% up and down threshold) for mechanical allodynia; format: in vivo, Sprague-Dawley (SD) male rats; details: for Mechanical threshold (von Frey), Before: 4 weeks after surgery, before drug treatment; for Effect on mechanical allodynia (in words): pregabalin 30 mg/kg or choline alfoscerate 325 mg/kg ip once a day for one week
Source text: The spared nerve injury (SNI) rat model was used as an efficient neuropathic pain model and von Freytest was used for assessing mechanical threshold. The SNI model, one of the peripheral nerve injury models that made from the 3 nerve branches (sciatic nerve), the one was spared, and the other 2 nerves (tibial, common peroneal nerve) were axotomized. Within 4 days of injury, mechanical and thermal hyperalgesia occurs, lasting weeks to up to 6 months.
Sprague-Dawley (SD) male rats (Koatech, South Korea) weighing 100-150 g, were used to generate neuropathic pain rat models. The rats were maintained under specifically controlled conditions (ambient temperature 23±2° C., 12-h light/dark cycle). Food pellets (DBL, Chungbuk, South Korea) and water were supplied ad libitum. All procedures complied with Institutional Animal Care and Use Committee of Dankook University (IACUC, South Korea), which adheres to the guidelines issued by the Institution of Laboratory of Animal Resources.
After surgery, rats were divided into three groups: (1) control (0.9% normal saline), (2) pregabalin (30 mg/kg), (3) choline alfoscerate (325 mg/kg).
Four weeks later after surgery, Drugs were injected intraperitoneally once a day for one week.
To generate an efficient neuropathic pain model, the rats were anesthetized under 3% isoflurane (Hana Pharm., South Korea), the left calf of the rat leg was incised and the common peroneal and the tibial nerve of three peripheral nerve branches in the sciatic nerve were axotomized and the sural nerve was spared then the surgical site was closed. After the surgery, animals were placed in the home cage to recover. 2 weeks after surgery, hypersensitivity will occur in the lateral area of the rat left hind paw.
4 weeks later after surgery, we applied von Frey filament test established by 50% up and down threshold method for evaluate mechanical allodynia in SNI model we made (Chaplan et al. 1994). The pain measurement was carried out by three people in order to objectify the results. Rats were habituated 5 minutes in the apparatus. […] We stimulated 5 times in the ventral aspect of rat left paw using each filament from thick to thin. If the rat response to stimulate over 3 times, we considered that the rat has NP. The pain response was determined by the behaviors of the rats suddenly took off their foot and shrank or licked their foot with their tongues. The behavioural patterns of the pain were recorded to calculate the threshold value of the pain.
4 weeks after surgery, when the mechanical stimuli were applied to the left paw of rats using von Frey monofilaments, thresholds were calculated by looking at the behavioral patterns. Through this test, the behavioral patterns that appeared when mechanical stimuli were applied to the neuropathic pain model and expressed as threshold which was a […] assessment of the pain scoring.

CCN(CC)CC(=O)Nc1c(C)cccc1C [Control group, lidocaine]
Pain intensity (PI-NRS) ([1]; T0, first visit before drug administration, nerve block group, 5 mL of 0.5% lidocaine at sites of pain once a week, n=38): 7.00 ± 0.52 points | Pain intensity (PI-NRS) ([1]; T0, first visit before drug administration, nerve block group, 5 mL of 0.5% lidocaine at sites of pain once a week, n=38, listed as control group): 7.00 points | Decrease in pain intensity (PI-NRS) from T0 ([1]; T0 to T1 (2 weeks), nerve block 0.5% lidocaine once a week): 1.61 points | Decrease in pain intensity (PI-NRS) from T0 ([1]; T0 to T6 (12 weeks), nerve block 0.5% lidocaine once a week): 4.76 points | Pain intensity (PI-NRS) ([1]; T1, 2 weeks after first administration, nerve block 0.5% lidocaine once a week): 5.39 ± 0.89 points | Pain intensity (PI-NRS) ([1]; T1, 2 weeks after first administration, nerve block 0.5% lidocaine once a week, listed as control group): 5.39 points | Pain intensity (PI-NRS) ([1]; T2, 4 weeks, nerve block 0.5% lidocaine once a week): 4.66 ± 0.85 points | Pain intensity (PI-NRS) ([1]; T3, 6 weeks, nerve block 0.5% lidocaine once a week): 3.63 ± 0.79 points | Pain intensity (PI-NRS) ([1]; T4, 8 weeks, nerve block 0.5% lidocaine once a week): 2.87 ± 0.81 points | Pain intensity (PI-NRS) ([1]; T5, 10 weeks, nerve block 0.5% lidocaine once a week): 2.37 ± 0.79 points | Pain intensity (PI-NRS) ([1]; T6, 12 weeks, nerve block 0.5% lidocaine once a week): 2.24 ± 0.91 points | Pain intensity (PI-NRS) ([1]; T6, 12 weeks, nerve block 0.5% lidocaine once a week, listed as control group): 2.24 points

C[N+](C)(C)CCOP(=O)([O-])OC[C@H](O)CO [Choline alfoscerate, choline alfoscerate]
Change in pain intensity of neuropathic pain (in words) ([1]; Example 1: iv 1 g twice a week, Example 2: oral 400 mg 3 times a day, 12 weeks): significant decrease in the pain intensity | Time after drug administration at which some patients reported decreased neuropathic pain ([1]; Example 1: iv, Example 2: oral, some patients): the next day | Pain intensity (PI-NRS) ([1]; T0, first visit before drug administration, choline alfoscerate iv group, 1 g/4 mL in 100 mL saline twice a week, n=59, listed as Example 1): 6.64 points and 6.64 ± 1.03 points | Pain intensity (PI-NRS) ([1]; T0, first visit before drug administration, choline alfoscerate oral group, 400 mg/capsule 3 times a day, n=54, listed as Example 2): 6.61 points and 6.61 ± 0.83 points | Decrease in pain intensity (PI-NRS) from T0 ([1]; T0 to T6 (12 weeks), choline alfoscerate iv 1 g twice a week): 4.18 points | Decrease in pain intensity (PI-NRS) from T0 ([1]; T0 to T6 (12 weeks), choline alfoscerate oral 400 mg 3 times a day): 4.48 points | Pain intensity (PI-NRS) ([1]; T1, 2 weeks after first administration, choline alfoscerate iv 1 g twice a week, listed as Example 1): 5.19 points and 5.19 ± 1.59 points | Pain intensity (PI-NRS) ([1]; T1, 2 weeks after first administration, choline alfoscerate oral 400 mg 3 times a day, listed as Example 2): 5.41 points and 5.41 ± 1.16 points | Pain intensity (PI-NRS) ([1]; T2, 4 weeks, choline alfoscerate iv 1 g twice a week): 4.56 ± 1.50 points | Pain intensity (PI-NRS) ([1]; T2, 4 weeks, choline alfoscerate oral 400 mg 3 times a day): 4.52 ± 1.42 points | Pain intensity (PI-NRS) ([1]; T3, 6 weeks, choline alfoscerate iv 1 g twice a week): 3.92 ± 1.42 points | Pain intensity (PI-NRS) ([1]; T3, 6 weeks, choline alfoscerate oral 400 mg 3 times a day): 3.63 ± 1.45 points | Pain intensity (PI-NRS) ([1]; T4, 8 weeks, choline alfoscerate iv 1 g twice a week): 3.34 ± 1.21 points | Pain intensity (PI-NRS) ([1]; T4, 8 weeks, choline alfoscerate oral 400 mg 3 times a day): 3.00 ± 1.23 points | Pain intensity (PI-NRS) ([1]; T5, 10 weeks, choline alfoscerate iv 1 g twice a week): 2.85 ± 1.10 points | Pain intensity (PI-NRS) ([1]; T5, 10 weeks, choline alfoscerate oral 400 mg 3 times a day): 2.59 ± 1.13 points | Pain intensity (PI-NRS) ([1]; T6, 12 weeks, choline alfoscerate iv 1 g twice a week, listed as Example 1): 2.46 points and 2.46 ± 0.99 points | Pain intensity (PI-NRS) ([1]; T6, 12 weeks, choline alfoscerate oral 400 mg 3 times a day, listed as Example 2): 2.13 points and 2.13 ± 0.99 points | Side effect after the treatment [2]: no side effect | Mechanical threshold (von Frey), Before ([3]; choline alfoscerate group): 2.59 ± 0.87 g | Mechanical threshold (von Frey), After ([3]; after choline alfoscerate 325 mg/kg intraperitoneally once a day for one week): 7.68 ± 4.48 g | Effect on mechanical allodynia (in words) [3]: significantly suppressed mechanical allodynia

CC(C)C[C@H](CN)CC(=O)O [Pregabalin, pregabalin]
Mechanical threshold (von Frey), Before ([3]; pregabalin group): 2.42 ± 0.81 g | Mechanical threshold (von Frey), After ([3]; after pregabalin 30 mg/kg intraperitoneally once a day for one week): 9.91 ± 4.12 g | Effect on mechanical allodynia (in words) [3]: significantly suppressed mechanical allodynia

Reference: US11311561B2, “Composition and method for treating, relieving or preventing neuropathic pain, containing choline alfoscerate as active ingredient” (NANOSTEM CO., LTD., priority 2017, dated 2022)
